Experimental data: US20090247768A1, “CRYSTALLINE SULFONAMIDE-CONTAINING INDOLE COMPOUND AND PROCESS FOR PREPARING THE SAME” (priority 2003, published 2009)

Assay: Solid stability against light (impurity content by HPLC after storage)
Type: physicochemical
Conditions: for Impurity content (%): HPLC; for change in impurity content before and after storage: 25° C./1000 Lx, 1 month and 3 months
Experimental: Column: ODS column (inner diameter=4.6 mm, column length=250 mm, particle size=5 μm) Column temperature: 30° C. Detection wavenumber: 282 nm Flow rate: 1.0 mL/min Mobile phase: Solution A: CH3CN/H2O/70% HClO4=100/900/1 (v/v/v) Solution B: CH3CN/H2O/70% HClO4=900/100/1 (v/v/v)
All of the peaks and peak areas were calculated from the chromatogram, and the impurity amount for each peak (except for the peak of N-(3-cyano-4-methyl-1H-indol-7-yl)-3-cyanobenzenesulfonamide) was calculated according to the following formula.
Individual impurity content (%)=(individual impurity peak area)/(total of all peak areas)×100
Peaks with impurity contents of 0.05% or greater were recorded as impurity peaks, and their total was recorded as the impurity content of the crystals.
Impurity content (%)=Total of individual impurity contents (%)
The crystals obtained in Example 1C, Example 1E and Example 1F were stored for 1 month and 3 months at 25° C./1000 Lx (LT-120D3J Light Stability Tester by Nagano Science, Japan), and then the impurity contents were measured by HPLC.
HPLC was conducted under the same conditions as in Test Example 1, except that elution was performed with the gradient program shown in Table 14.
The impurity content of the crystals was determined by the same method as described for Test Example 1. […] That is, the crystals obtained in Examples 1F and 1C (Form A and Form C) clearly had higher stability against light.

[1] = solid crystals stored at 25° C./1000 Lx/1 month
[2] = solid crystals stored at 25° C./1000 Lx/3 months

In the case of `Cc1ccc(NS(=O)(=O)c2cccc(C#N)c2)c2[nH]cc(C#N)c12` [Example 1C, N-(3-cyano-4-methyl-1H-indol-7-yl)-3-cyanobenzenesulfonamide], the “Impurity content (%)” value [1] is reported as 0.51%, the “Impurity content (%)” value [2] is reported as 0.51% and the “change in impurity content before and after storage” value (“change” for short) (solid crystals) is reported as “no change”. The “Impurity content (%)” value (solid crystals, before storage) was 0.51%.

With `Cc1ccc(NS(=O)(=O)c2cccc(C#N)c2)c2[nH]cc(C#N)c12` [Example 1E, N-(3-cyano-4-methyl-1H-indol-7-yl)-3-cyanobenzenesulfonamide] the “Impurity content (%)” value [1] was 0.83%, the “Impurity content (%)” value [2] was 4.44% and the “change” value (solid crystals) was “increased”. The “Impurity content (%)” value (solid crystals, before storage) was 0.50%.

With `Cc1ccc(NS(=O)(=O)c2cccc(C#N)c2)c2[nH]cc(C#N)c12` [Example 1F, N-(3-cyano-4-methyl-1H-indol-7-yl)-3-cyanobenzenesulfonamide] the “Impurity content (%)” value [1] was 0.41%, the “Impurity content (%)” value [2] was 0.51% and the “change” value (solid crystals) was “no change”. The “Impurity content (%)” value (solid crystals, before storage) was 0.42%.
